Results reported in patent US20150259300A1, “4-(ORTHO)-FLUOROPHENYL-5-FLUOROPYRIMIDIN-2-YL AMINES CONTAINING A SULFONE GROUP” (BAYER PHARMA AKTIENGESELLSCHAFT, priority 2012, published 2015).

Columns and labels:
CDK9/CycT1 [1] = target: T1, CDK9/CycT1 (Homo sapiens, UniProt P50750); assay: CDK9/CycT1 kinase assay (TR-FRET, Method 1a); type: biochemical; details: for IC50: Method 1a, 10 μM ATP; for Selectivity CDK9/CDK2: derived from Methods 1a. and 2.
T1 construct: Recombinant full-length His-tagged human CDK9 and CycT1; His; purchased Invitrogen PV4131; host or cells: insect cells
From the text: 1a. CDK9/CyeT1 Kinase Assay:
CDK9/CycT1-inhibitory activity of compounds of the present invention was quantified employing the CDK9/CycT1 TR-FRET assay as described in the following paragraphs:
Recombinant full-length His-tagged human CDK9 and CycT1, expressed in insect cells and purified by Ni-NTA affinity chromatography, were purchased from Invitrogen (Cat. No PV4131). As substrate for the kinase reaction biotinylated peptide biotin-Ttds-YISPLKSPYKISEG (C-terminus in amid form) was used which can be purchased e.g. form the company JERINI Peptide Technologies (Berlin, Germany). For the assay 50 nl of a 100 fold concentrated solution of the test compound in DMSO was pipetted into a black low volume 384 well microtiter plate (Greiner Bio-One, Frickenhausen, Germany), 2 μl of a solution of CDK9/CycT1 in aqueous assay buffer [50 mM Tris/HCl pH 8.0, 10 mM MgCl2, 1.0 mM dithiothreitol, 0.1 mM sodium ortho-vanadate, 0.01% (v/v) Nonidet-P40 (Sigma)] were added and the mixture was incubated for 15 min at 22° C. to allow pre-binding of the test compounds to the enzyme before the start of the kinase reaction. Then the kinase reaction was started by the addition of 3 μl of a solution of adenosine-tri-phosphate (ATP, 16.7 μM=>final conc. in the 5 μl assay volume is 10 μM) and substrate (1.67 μM=>final conc. in the 5 μl assay volume is 1 μM) in assay buffer and the resulting mixture was incubated for a reaction time of 25 min at 22° C. The concentration of CDK9/CycT1 was adjusted depending of the activity of the enzyme lot and was chosen appropriate to have the assay in the linear range, typical concentrations were in the range of 1 μg/ml. The reaction was stopped by the addition of 5 μl of a solution of TR-FRET detection reagents (0.2 μM streptavidine-XL665 [Cisbio Bioassays, Codolet, France] and 1 nM anti-RB(pSer807/pSer811)-antibody from BD Pharmingen [#558389] and 1.2 nM LANCE EU-W1024 labeled anti-mouse IgG antibody [Perkin-Elmer, product no. AD0077]) in an aqueous EDTA-solution (100 mM EDTA, 0.2% (w/v) bovine serum albumin in 100 mM HEPES/NaOH pH 7.0).
(§1) The resulting mixture was incubated 1 h at 22° C. to allow the formation of complex between the phosphorylated biotinylated peptide and the detection reagents. Subsequently the amount of phosphorylated substrate was evaluated by measurement of the resonance energy transfer from the Eu-chelate to the streptavidine-XL. Therefore, the fluorescence emissions at 620 nm and 665 nm after excitation at 350 nm was measured in a HTRF reader, e.g. a Rubystar (BMG Labtechnologies, Offenburg, Germany) or a Viewlux (Perkin-Elmer). The ratio of the emissions at 665 nm and at […] was taken as the measure for the amount of phosphorylated substrate. The data were normalised (enzyme reaction without inhibitor=0% inhibition, all other assay components but no enzyme=100% inhibition).

CDK2/CycE = target: T2, CDK2/CycE (Homo sapiens, UniProt P24941); assay: CDK2/CycE kinase assay (TR-FRET, Method 2); type: biochemical; details: Method 2, 10 μM ATP
T2 construct: GST; purchased ProQinase GmbH (Freiburg, Germany); host or cells: insect cells (Sf9)
From the text: 2. CDK2/CycE Kinase Assay:
CDK2/CycE -inhibitory activity of compounds of the present invention was quantified employing the CDK2/CycE TR-FRET assay as described in the following paragraphs:
Recombinant fusion proteins of GST and human CDK2 and of GST and human CycE, expressed in insect cells (Sf9) and purified by Glutathion-Sepharose affinity chromatography, were purchased from ProQinase GmbH (Freiburg, Germany). As substrate for the kinase reaction biotinylated peptide biotin-Ttds-YISPLKSPYKISEG (C-terminus in amid form) was used which can be purchased e.g. form the company JERINI Peptide Technologies (Berlin, Germany).
(§2) For the assay 50 nl of a 100 fold concentrated solution of the test compound in DMSO was pipetted into a black low volume 384 well microtiter plate (Greiner Bio-One, Frickenhausen, Germany), 2 μl of a solution of CDK2/CycE in aqueous assay buffer [50 mM Tris/HCl pH 8.0, 10 mM MgCl2, 1.0 mM dithiothreitol, 0.1 mM sodium ortho-vanadate, 0.01% (v/v) Nonidet-P40 (Sigma)] were added and the mixture was incubated for […] at 22° C. to allow pre-binding of the test compounds to the enzyme before the start of the kinase reaction. Then the kinase reaction was started by the addition of 3 μl of a solution of adenosine-tri-phosphate (ATP, 16.7 μM=>final conc. in the 5 μl assay volume is 10 μM) and substrate (1.25 μM=>final conc. in the 5 μl assay volume is 0.75 μM) in assay buffer and the resulting mixture was incubated for a reaction time of […] at 22° C. The concentration of CDK2/CycE was adjusted depending of the activity of the enzyme lot and was chosen appropriate to have the assay in the linear range, typical concentrations were in the range of 130 ng/ml. The reaction was stopped by the addition of 5 μl of a solution of TR-FRET detection reagents (0.2 μM streptavidine-XL665 [Cisbio Bioassays, Codolet, France] and 1 nM anti-RB(pSer807/pSer811)-antibody from BD Pharmingen [#558389] and 1.2 nM LANCE EU-W1024 labeled anti-mouse IgG antibody [Perkin-Elmer, product no. AD0077]) in an aqueous EDTA-solution (100 mM EDTA, 0.2% (w/v) bovine serum albumin in 100 mM HEPES/NaOH pH 7.0).
as §1, with “TR-FRET” for “HTRF”

HeLa cells = assay: Proliferation assay (crystal violet), HeLa; type: cell-based; details: Homo sapiens, 96 h, 4 days, read-out: Inhibition of HeLa cell proliferation IC50
Procedure: Cultivated tumour cells (HeLa, human cervical tumour cells, ATCC CCL-2; NCI-H460, human non-small cell lung carcinoma cells, ATCC HTB-177; A2780, human ovarian carcinoma cells, ECACC #93112519; DU 145, hormone-independent human prostate carcinoma cells, ATCC HTB-81; HeLa-MaTu-ADR, multidrug-resistant human cervical carcinoma cells, EPO-GmbH Berlin; Caco-2, human colorectal carcinoma cells, ATCC HTB-37; B 16F10, mouse melanoma cells, ATCC CRL-6475) were plated at a density of 5,000 cells/well (DU145, HeLa-MaTu-ADR), 3,000 cells/well (NCI-H460, HeLa), 2,500 cells/well (A2780), 1,500 cells/well (Caco-2), or 1,000 cells/well (B16F10) in a 96-well multititer plate in 200 μL of their respective growth medium supplemented 10% fetal calf serum. After 24 hours, the cells of one plate (zero-point plate) were stained with crystal violet (see below), while the medium of the other plates was replaced by fresh culture medium (200 to which the test substances were added in various concentrations (0 μM, as well as in the range of 0.001-10 μM; the final concentration of the solvent dimethyl sulfoxide was 0.5%). The cells were incubated for 4 days in the presence of test substances. Cell proliferation was determined by staining the cells with crystal violet: the cells were fixed by adding 20 μl/measuring point of an 11% glutaric aldehyde solution for 15 minutes at room temperature. After three washing cycles of the fixed cells with water, the plates were dried at room temperature. The cells were stained by adding 100 μl/measuring point of a 0.1% crystal violet solution (pH 3.0). After three washing cycles of the stained cells with water, the plates were dried at room temperature. The dye was dissolved by adding 100 μl/measuring point of a 10% acetic acid solution. The extinction was determined by photometry at a wavelength of 595 nm. The change of cell number, in percent, was calculated by normalization of the measured values to the extinction values of the zero-point plate (=0%) and the extinction of the untreated (0 μm) cells (=100%). The IC50 values (inhibitory concentration at 50% of maximal effect) were determined by means of a 4 parameter fit.

CDK9/CycT1 [2] = target: T1, CDK9/CycT1; assay: CDK9/CycT1 high ATP kinase assay (TR-FRET, Method 1b); type: biochemical; details: 2 mM ATP
Procedure: 1b. CDK9/CyeT1 High ATP Kinase Assay
CDK9/CycT1-inhibitory activity of compounds of the present invention at a high ATP concentration after preincubation of enzyme and test compounds was quantified employing the CDK9/CycT1 TR-FRET assay as described in the following paragraphs.
Recombinant full-length His-tagged human CDK9 and CycT1, expressed in insect cells and purified by Ni-NTA affinity chromatography, were purchase from Invitrogen (Cat. No PV4131). As substrate for the kinase reaction biotinylated peptide biotin-Ttds-YISPLKSPYKISEG (C-terminus in amid form) was used which can be purchased e.g. form the company JERINI peptide technologies (Berlin, Germany).
as §2, with “of CDK9/CycT1” for “of CDK2/CycE”, “(ATP, 3.3 mM=>final conc. in the 5 μl assay volume is 2 mM) and substrate (1.67” for “(ATP, 16.7”, “is 1” for “is 10 μM) and substrate (1.25 μM=>final conc. in the 5 μl assay volume is 0.75”, “of 0.5” for “of 130”, “([…]” for “(0.2 μM”
as §1

T1 sequence (P50750 whole entry): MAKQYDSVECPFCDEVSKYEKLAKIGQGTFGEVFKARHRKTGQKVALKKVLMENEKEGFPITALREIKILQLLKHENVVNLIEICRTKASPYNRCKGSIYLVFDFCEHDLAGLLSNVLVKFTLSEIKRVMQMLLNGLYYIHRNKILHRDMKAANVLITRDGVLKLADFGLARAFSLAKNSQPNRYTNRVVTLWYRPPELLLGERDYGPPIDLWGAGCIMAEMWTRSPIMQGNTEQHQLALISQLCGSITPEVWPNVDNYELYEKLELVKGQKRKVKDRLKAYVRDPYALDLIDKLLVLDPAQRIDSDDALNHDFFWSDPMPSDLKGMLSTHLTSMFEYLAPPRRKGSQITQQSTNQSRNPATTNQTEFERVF
T1 sequence (O60563 whole entry partner): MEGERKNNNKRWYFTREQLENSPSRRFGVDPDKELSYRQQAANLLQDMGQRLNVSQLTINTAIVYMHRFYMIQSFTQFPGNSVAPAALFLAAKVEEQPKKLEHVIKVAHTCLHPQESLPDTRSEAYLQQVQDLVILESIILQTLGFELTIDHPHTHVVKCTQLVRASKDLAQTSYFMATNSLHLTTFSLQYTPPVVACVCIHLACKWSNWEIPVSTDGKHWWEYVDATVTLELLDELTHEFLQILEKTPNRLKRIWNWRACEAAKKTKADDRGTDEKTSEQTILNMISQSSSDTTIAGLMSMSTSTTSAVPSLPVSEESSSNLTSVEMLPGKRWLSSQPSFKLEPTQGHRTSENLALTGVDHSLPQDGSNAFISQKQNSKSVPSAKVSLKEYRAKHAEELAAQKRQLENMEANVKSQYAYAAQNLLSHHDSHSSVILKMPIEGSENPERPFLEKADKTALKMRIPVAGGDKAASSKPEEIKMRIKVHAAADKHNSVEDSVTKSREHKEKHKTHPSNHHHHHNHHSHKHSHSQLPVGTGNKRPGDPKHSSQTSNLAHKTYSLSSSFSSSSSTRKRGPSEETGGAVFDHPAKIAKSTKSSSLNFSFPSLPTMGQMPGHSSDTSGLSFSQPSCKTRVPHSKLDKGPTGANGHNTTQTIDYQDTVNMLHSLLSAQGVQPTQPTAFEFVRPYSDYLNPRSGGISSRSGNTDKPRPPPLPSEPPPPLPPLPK

CS(=O)(=O)Cc1cc(Nc2ncc(F)c(-c3ccc(F)cc3F)n2)cc(C(F)(F)F)c1 [Example 1, 4-(2,4-Difluorophenyl)-5-fluoro-N-{3-[(methylsulfonyl)methyl]-5-(trifluoromethyl)phenyl}pyrimidin-2-amine]
IC50 (CDK9/CycT1 [1]): 0.02 µM
Selectivity CDK9/CDK2 (CDK9/CycT1 [1]): >1000
IC50 (CDK2/CycE): > 20 µM
IC50 (HeLa cells): 1.05 µM

CCS(=O)(=O)Cc1cccc(Nc2ncc(F)c(-c3ccc(F)cc3F)n2)c1 [Example 7, 4-(2,4-Difluorophenyl)-N-{3-[(ethylsulfonyl)methyl]phenyl}-5-fluoropyrimidin-2-amine]
IC50 (CDK9/CycT1 [1]): 0.04 µM
Selectivity CDK9/CDK2 (CDK9/CycT1 [1]): 8.9
IC50 (CDK2/CycE): 0.36 µM
IC50 (HeLa cells): 2.24 µM

CCCS(=O)(=O)Cc1cc(F)cc(Nc2ncc(F)c(-c3cc(F)c(F)cc3F)n2)c1 [Example 14, 5-Fluoro-N-{3-fluoro-5-[(propylsulfonyl)methyl]phenyl}-4-(2,4,5-trifluorophenyl)pyrimidin-2-amine]
IC50 (CDK2/CycE): > 20 µM
IC50 (CDK9/CycT1 [2]): > 20 µM
IC50 (HeLa cells): 3 µM
